Assay results as given in patent US7947685B2, “Pyrazine-2-carboxyamide derivatives” (Hoffmann-La Roche Inc., priority 2005, dated 2011).

Each compound was assayed against T1, human mGlu 5a receptor (Homo sapiens, UniProt P41594) (assay: [3H]MPEP competition binding on membranes of EBNA cells transiently transfected with human mGlu 5a receptor). Conditions: displacement of [3H]MPEP (2 nM), 1 h at 4° C.
T1 construct: expressed in transfected cells; host or cells: EBNA cells (transient transfection); cell membrane homogenates
T1 sequence (P41594 21-1180 isoform P41594-2 limits assumed): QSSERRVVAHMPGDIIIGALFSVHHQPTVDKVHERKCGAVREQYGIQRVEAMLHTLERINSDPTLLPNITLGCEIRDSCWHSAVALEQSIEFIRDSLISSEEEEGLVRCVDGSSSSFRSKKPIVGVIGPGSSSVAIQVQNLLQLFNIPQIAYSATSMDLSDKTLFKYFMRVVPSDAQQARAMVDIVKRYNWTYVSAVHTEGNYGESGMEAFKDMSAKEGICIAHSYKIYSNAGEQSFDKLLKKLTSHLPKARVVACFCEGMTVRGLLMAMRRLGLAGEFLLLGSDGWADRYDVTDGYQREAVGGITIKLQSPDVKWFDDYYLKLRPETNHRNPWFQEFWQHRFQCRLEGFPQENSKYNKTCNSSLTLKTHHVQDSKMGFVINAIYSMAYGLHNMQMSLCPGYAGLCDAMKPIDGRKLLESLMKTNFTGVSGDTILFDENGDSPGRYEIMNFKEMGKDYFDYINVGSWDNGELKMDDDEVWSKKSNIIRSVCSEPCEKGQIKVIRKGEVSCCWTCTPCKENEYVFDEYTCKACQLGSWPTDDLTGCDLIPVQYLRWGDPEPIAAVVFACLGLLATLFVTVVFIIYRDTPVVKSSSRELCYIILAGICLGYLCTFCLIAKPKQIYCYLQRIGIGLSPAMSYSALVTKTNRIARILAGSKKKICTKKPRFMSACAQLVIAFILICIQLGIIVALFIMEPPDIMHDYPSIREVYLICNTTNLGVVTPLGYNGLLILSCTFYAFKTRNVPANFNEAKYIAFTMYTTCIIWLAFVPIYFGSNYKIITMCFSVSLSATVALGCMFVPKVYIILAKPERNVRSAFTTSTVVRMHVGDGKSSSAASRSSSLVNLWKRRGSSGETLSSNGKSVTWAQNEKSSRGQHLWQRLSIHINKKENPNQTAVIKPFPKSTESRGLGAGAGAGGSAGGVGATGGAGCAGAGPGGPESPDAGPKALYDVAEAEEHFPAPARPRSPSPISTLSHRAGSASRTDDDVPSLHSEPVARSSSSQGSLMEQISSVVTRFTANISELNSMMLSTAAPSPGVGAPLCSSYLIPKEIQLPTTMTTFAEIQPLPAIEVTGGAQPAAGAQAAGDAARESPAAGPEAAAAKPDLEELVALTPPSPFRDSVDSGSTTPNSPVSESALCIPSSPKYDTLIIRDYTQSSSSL
Description: The pharmacological activity of the compounds was tested using the following method: For binding experiments, cDNA encoding human mGlu 5a receptor was transiently transfected into EBNA cells using a procedure described by Schlaeger and Christensen [Cytotechnology 15:1-13 (1998)]. Cell membrane homogenates were stored at −80° C. until the day of assay where upon they were thawed and resuspended and polytronized in 15 mM Tris-HCl, 120 mM NaCl, 100 mM KCl, 25 mM CaCl2, 25 mM MgCl2 binding buffer at pH 7.4 to a final assay concentration of 20 μg protein/well.
Saturation isotherms were determined by addition of twelve [^3H]MPEP concentrations (0.04-100 nM) to these membranes (in a total volume of 200 μl) for 1 h at 4° C. Competition experiments were performed with a fixed concentration of [^3H]MPEP (2 nM), and IC50 values of test compounds evaluated using […] (0.3-10,000 nM). Incubations were performed for 1 h at 4° C.
At the end of the incubation, membranes were filtered onto unifilter (96-well white microplate with bonded GF/C filter preincubated 1 h in 0.1% PEI in wash buffer, Packard BioScience, Meriden, Conn.) with a Filtermate 96 harvester (Packard BioScience) and washed 3 times with cold 50 mM Tris-HCl, pH 7.4 buffer. Nonspecific binding was measured in the presence of 10 μM MPEP. The radioactivity on the filter was counted (3 min) on a Packard Top-count microplate scintillation counter with quenching correction after addition of 45 μl of microscint 40 (Canberra Packard S.A., Zürich, Switzerland) and shaking for 20 min.
The inhibition (antagonists) curves were fitted with a four parameter logistic equation giving IC50, and Hill coefficient using iterative non linear curve fitting software (Xcel fit).
For binding experiments the Ki values of the compounds tested are given. The Ki value is defined by the following formula: Ki=IC50/[1+L/Kd] in which the IC50 values are these concentrations of the compounds tested which cause 50% inhibition of the competing radioligand ([^3H]MPEP). L is the concentration of radioligand used in the binding experiment and the Kd value of the radioligand is empirically determined for each batch of membranes prepared.

Structure (SMILES) | Ki
Cc1cc(NC(=O)c2nccnc2Nc2ccccc2)ccn1 [Example 4, 3-Phenylamino-pyrazine-2-carboxylic acid (2-methyl-pyridin-4-yl)-amide] | 761 nM
Cc1cc(NC(=O)c2nc(C)cnc2Nc2cncc(Cl)c2)ccn1 [Example 5, 3-(5-Chloro-pyridin-3-ylamino)-6-methyl-pyrazine-2-carboxylic acid (2-methyl-pyridin-4-yl)-amide] | 1630 nM
Cn1ccc(NC(=O)c2nccnc2Nc2cncc(F)c2)n1 [Example 3, 3-(5-Fluoro-pyridin-3-ylamino)-pyrazine-2-carboxylic acid (1-methyl-1H-pyrazol-3-yl)-amide] | 71 nM

The next lines start with the values.

Ki | Structure (SMILES)
95 nM | O=C(Nc1cccc(Cl)c1)c1nccnc1Nc1ccccc1 [Example 2, 3-Phenylamino-pyrazine-2-carboxylic acid (3-chloro-phenyl)-amide]
54 nM | O=C(Nc1cccc(Cl)c1)c1nccnc1Nc1cccnc1 [Example 1, 3-(Pyridin-3-ylamino)-pyrazine-2-carboxylic acid (3-chloro-phenyl)-amide]
